Reference: patent US8609087B2, “Compounds and methods for identifying compounds which inhibit a new class of aspartyl proteases” (priority 1999, dated 2013)
“And” between values parts separate entries of the source, which are not always exact repeats. Equal values may be shown once. “Also recorded” adds a separate entry of the source. Square brackets hold non-standard residues; d marks the D form. Peptide text beside a SMILES is read from it. * marks the point of attachment. Sta = CC(C)C[C@H](N)[C@@H](O)CC(=O)O; Isovaleryl = CC(C)CC(=O)*; Nle = CCCC[C@H](N)C(=O)O

Molecular target: TcpJ type 4 prepilin peptidase (TFPP) (Vibrio cholerae serotype O1, UniProt A5F385, P151Q/Q149P/S169T)
Type: biochemical

| Compound | % Cleavage | Effect on TcpJ peptidase activity (in words) |
| --- | --- | --- |
| CC(=O)N[C@@H](CC(C)C)C(=O)N[C@@H](CC(C)C)C(=O)N[C@H](C=O)CCCNC(=N)N [Leupeptin] | 85% | – |
| CCN1C(=O)C=CC1=O [NEM] | 30% | partial effects |
| CC(C)C[C@H](NC(=O)[C@@H](O)[C@H](N)Cc1ccccc1)C(=O)O [Bestatin] | 81% | – |
| CC(C)CC(=O)N[C@H](C(=O)N[C@H](C(=O)N[C@@H](CC(C)C)[C@@H](O)CC(=O)N[C@@H](C)C(=O)N[C@@H](CC(C)C)[C@@H](O)CC(=O)O)C(C)C)C(C)C [Pepstatin] (Isovaleryl-VV[Sta]A[Sta]-OH) | 95% and 92% and 74% | complete insensitivity; also recorded: completely resistant |
| CC(C)C[C@H](NP(=O)(O)O[C@@H]1O[C@@H](C)[C@H](O)[C@@H](O)[C@H]1O)C(=O)N[C@@H](Cc1c[nH]c2ccccc12)C(=O)O [Phosphoramidon] | 89% | – |
| O=c1oc(Cl)c(Cl)c2ccccc12 [3,4-DCI] | 89% and 54% | – |
| Aprotinin | 100% | – |
| CCCC[C@@H](C=O)NC(=O)[C@H](CC(C)C)NC(=O)[C@H](CC(C)C)NC(C)=O [Calpain inhibitor I] (Ac-Leu-Leu-[Nle]-aldehyde) | 87% | – |
| Cl.NCCc1ccc(S(=O)(=O)F)cc1 [Pefabloc SC] | 62% and 50% | partial effects |
| O=S(=O)(F)Cc1ccccc1 [PMSF] | 98% and 68% | partial effects |
